In paper PMC5762859, “Distribution analysis of epertinib in brain metastasis of HER2-positive breast cancer by imaging mass spectrometry and prospect for antitumor activity” (Scientific Reports, 2018):
Like-named read-outs stand apart in the source and are kept apart here.

Tests used:
[1] = Plasma and brain pharmacokinetics after single oral administration in mice implanted intracranially with MDA-MB-361 cells; conditions: for concentration at 8 h / Tmax / concentration at 0.5 h / concentration at 1 h / concentration at 2 h / concentration at 4 h / concentration at 24 h / AUC(0-t) / Cmax: female, mouse, po; for AUC0–24 h, brain / Cmax, brain: single oral 20 mg/kg, mice
From the text: (§1) All experimental protocols were approved by the Institutional Animal Care and Use Committee of Shionogi & Co., Ltd (Osaka, Japan) and performed in accordance with the Guidelines for Animal Experiments of Shionogi & Co., Ltd, which meet the ethical standards required by the law and the guidelines about the experimental animals in Japan. Nude mice (BALB/cAJcl-nu/nu, CLEA Japan) were used for in vivo studies. All mice were female and six to nine weeks old at the time of implantation. […] Plasma was separated by centrifugation at 3,000 rpm for 15 min at 4 °C and stored at −80 °C until analysis. After blood sampling, brain tissues were immediately excised, frozen on dry ice, and stored at −80 °C prior to sectioning.
(§2) The mixture was stirred for 10 min and centrifuged at 5,000 rpm for 5 min at 10 °C, and 1 µL of the supernatant was injected into the LC-MS/MS system. An ultra-HPLC system (Nexera LC-20A, Shimadzu Corp., Kyoto, Japan) with a triple quadrupole mass spectrometer (API 5000^TM, AB Sciex, Forester City, CA, USA) was used for LC/MS/MS analysis. The LC-MS/MS system was controlled by Analyst 1.4.2 (AB Sciex) software. Chromatographic separation was performed using a Cadenza CD-C18 HT column (50 × 2.0 mm i.d., 3 µm; Imtakt Corp., Kyoto, Japan).

[2] = Plasma exposure after single oral administration in nude mice; assay type: in vivo; conditions: mouse, single oral 50 mg/kg, read-out: Plasma exposure (AUC0–24 h)
[3] = Quantitative MALDI-IMS of drug in brain metastases of the breast cancer IVM (BR2, BR3); assay type: in vivo, mice; conditions: for concentration at 4 h / concentration at 8 h: female, BALB/cAJcl-nu/nu, mouse, tumor (brain metastasis) in brain sections, po, 50 mg/kg, IMS; for concentration at 4 h: 4 h after single oral 50 mg/kg; for concentration at 8 h: 8 h after single oral 50 mg/kg
Procedure: BTB integrity in the IVM was assessed by measuring the fluorescence intensity of Texas-Red® dextran in the metastatic regions or brain parenchyma. Metastatic regions were defined as cancer cell clusters with DAPI staining in the same brain section (Fig. 2E and Supplementary Fig. S2C).
as §1
(§3) In the experimental brain metastasis of breast cancer or lung cancer (IVM), a cell suspension containing 2.0 × 10^6 cells (BR2), 1.7 × 10^6 cells (BR3), or 4.0 × 10^5 cells (NCI-H1975-luc) was implanted into the left ventricle of anaesthetized mice (Supplementary Fig. S1). In the intracranial implantation mice model, the cell suspension containing 3.1 × 10^5 cells was implanted into the craniotomy region (2 mm to the left of the bregma and 1 mm anterior to the coronal suture). For measurement of bioluminescence, 0.2 mL of 10 mg/mL luciferin solution was injected intravenously into anesthetized mice via the tail vein and the photons emitted from tumor measured by IVIS Imaging System 200 (Caliper Life Sciences).
Frozen brain tissues were cut into 10-µm sections using a cryostat (Leica CM3050 S; Leica Microsystems Inc., Wetzlar, Germany) at −20 °C. Sections were thaw-mounted onto glass microscope slides (Superfrost; Thermo Fisher Scientific Inc.) and stored at −80 °C until use. […] Standard solutions were spotted onto the glass microscope slides at 1 µL.
Matrix-coated sections were analyzed using a linear ion trap mass spectrometer with a MALDI source (MALDI LTQ XL, Thermo Fisher Scientific Inc.) and a nitrogen laser (337 nm; 60 Hz). Laser energy and raster step size were set at 30 µJ and 100 µm, respectively. All compounds were detected in positive-ion mode using the product ion scans of their [M + H]^+ ions. […] Heme B was detected by MS3 (m/z 616 → 557 → 498) as a blood biomarker.
Spectral data were acquired using Xcalibur 2.0.7 software (Thermo Fisher Scientific Inc.) and the localization and concentration of all compounds in the brain sections were analyzed using Quantinetix 1.7.10 software (ImaBiotech, Loos, France). The fluorescence intensity of Texas-Red® dextran and immunostaining intensity of HER2 were analyzed using a BZ-X analyzer (Keyence). Statistical analyses were performed using SAS software (version 9.4).

[4] = Plasma concentration by LC-MS/MS in the breast cancer IVM; assay type: in vivo, mice; conditions: female, BALB/cAJcl-nu/nu, mouse, po, 50 mg/kg; for concentration at 4 h: 4 h after single oral 50 mg/kg; for concentration at 8 h: 8 h after single oral 50 mg/kg
From the text: as §1, §2

[5] = Quantitative MALDI-IMS of drug in brain metastases of the lung cancer IVM (NCI-H1975-luc); assay type: in vivo, mice; conditions: female, BALB/cAJcl-nu/nu, mouse, tumor (brain metastasis) in brain sections, 4 h after oral 100 mg/kg
From the text: as §1, with “After blood sampling, brain tissues were immediately excised, frozen on dry ice, and stored at −80 °C prior to sectioning.” left out
as §3, with “In the intracranial implantation mice model, the cell suspension containing 3.1 × 10^5 cells was implanted into the craniotomy region (2 mm to the left of the bregma and 1 mm anterior to the coronal suture).” left out, “Sciences). […]” for “Sciences).”
Matrix-coated sections were analyzed using a linear ion trap mass spectrometer with a MALDI source (MALDI LTQ XL, Thermo Fisher Scientific Inc.) and a nitrogen laser (337 nm; 60 Hz). […] All compounds were detected in positive-ion mode using the product ion scans of their [M + H]^+ ions. […]

[6] = Plasma concentration in the lung cancer IVM; assay type: in vivo, mice; conditions: female, BALB/cAJcl-nu/nu, mouse, 4 h after oral 100 mg/kg
From the text: as §1, §2

[7] = set-up: method as in PMID 25434923; conditions: human, cited from earlier work
HER2 [8] = system: HER2; set-up: method as in PMID 24837299; conditions: cited from earlier work
EGFR = system: EGFR; set-up: method as in PMID 24837299; conditions: between 6 and 24 h after a single administration; cited from earlier work
HER2 [9] = system: HER2; set-up: method as in PMID 24837299; conditions: between 6 and 24 h after a single administration; cited from earlier work
[10] = system: patients with solid tumors; set-up: method as in PMID 25434923, PMID 25434923, PMID 25434923; conditions: phase I trials; cited from earlier work
[11] = system: HER2-positive metastatic breast cancer patients; set-up: method as in earlier work; conditions: cited from earlier work; for Objective response rate (ORR): heavily pretreated HER2-positive metastatic breast cancer
[12] = BALB/cAJcl-nu/nu nude, brain, 20 mg/kg
[13] = BALB/cAJcl-nu/nu, brain, 20 mg/kg
[14] = BALB/cAJcl-nu/nu, plasma, 20 mg/kg

| SMILES | concentration at 8 h [1, 12] [ng/g] | Tmax [1, 13] [h] | concentration at 0.5 h [1, 13] [ng/g] | concentration at 1 h [1, 13] [ng/g] | concentration at 2 h [1, 13] [ng/g] | concentration at 4 h [1, 13] [ng/g] | concentration at 24 h [1, 13] [ng/g] | AUC(0-t) [1, 14] [ng·h/mL] | Cmax [1, 14] [ng/mL] | Tmax [1, 14] [h] | concentration at 1 h [1, 14] [ng/mL] | concentration at 2 h [1, 14] [ng/mL] | concentration at 4 h [1, 14] [ng/mL] | concentration at 8 h [1, 14] [ng/mL] | concentration at 24 h [1, 14] [ng/mL] | AUC0–24 h, brain [1] [ng·h/g] | Cmax, brain [1] [ng/g] | AUC(0-t) [2] [ng·h/mL] | concentration at 4 h ([3]; BR2 IVM) [ng/g] | concentration at 4 h ([3]; BR3 IVM) [ng/g] | further results |
| --- | --- | --- | --- | --- | --- | --- | --- | --- | --- | --- | --- | --- | --- | --- | --- | --- | --- | --- | --- | --- | --- |
| CC#CC(=NOCC1COCCN1)c1ccc2ncnc(Nc3ccc(OCc4cccc(F)c4)c(Cl)c3)c2c1 (stereo not drawn) [Epertinib] | 23.8 | 4 | 10.2 | 12.8 | 23 | 36.3 | 1.7 | 1260 | 145 | 2 | 113 | 145 | 115 | 54.7 | 2.1 | 409 | 36 | 9980 | 2930 | 2700 | Brain concentration of epertinib relative to that of lapatinib ([1]; 4 h after oral administration, 20 mg/kg): approximately twice; concentration at 0.5 h ([1]; BALB/cAJcl-nu/nu, in vivo, 20 mg/kg): 99.8 ng/mL; Concentration measured in brain metastases of the IVM with breast cancer ([3]; breast cancer IVM): 5.2 µM; Tumor concentration of epertinib relative to that of lapatinib ([3]; breast cancer IVMs, 4 h after administration): > 10 times; concentration at 8 h ([3]; BR3 IVM): 2710 ng/g; concentration at 4 h ([4]; BR2 IVM): 1440 ± 50 ng/mL; concentration at 4 h ([4]; BR3 IVM): 1300 ± 120 ng/mL; concentration at 8 h ([4]; BR3 IVM): 920 ± 300 ng/mL; concentration at 4 h [5]: 6700 ng/g; concentration at 4 h [6]: 2760 ± 660 ng/mL; Plasma exposure (AUC0–24 h) ([7]; effective dose 800 mg/day): 9170 ng·h/mL; Off-rate of dissociation compared with lapatinib (HER2 [8]): slower off-rate of dissociation; Inhibitory activity on EGFR phosphorylation at 24 h (EGFR): persisted at 24 h; Inhibitory activity on HER2 phosphorylation at 24 h (HER2 [9]): persisted at 24 h; Tolerability [10]: well tolerated; Tumor reduction (partial response), brain metastases as the target lesion ([11]; all the participants in a clinical trial): two of 45; Objective response rate (ORR) ([11]; in combination with trastuzumab and capecitabine): 56%; Objective response rate (ORR) ([11]; in combination with trastuzumab): 67%; Tumor response (patients) ([11]; in combination with trastuzumab, patients previously treated with lapatinib plus capecitabine or ado-trastuzumab emtansine): seven of 21 |
| CS(=O)(=O)CCNCc1ccc(-c2ccc3ncnc(Nc4ccc(OCc5cccc(F)c5)c(Cl)c4)c3c2)o1 [Lapatinib, N-{3-chloro-4-[(3-fluorobenzyl)oxy]phenyl}-6-[5-({[2-(methylsulfonyl)ethyl]amino}methyl)-2-furyl]-4-quinazolinamine, reference compound] | 5.8 | 4 | 11.8 | 15.7 | 10 | 17 | 0.4 | 4110 | 985 | 0.5 | 763 | 413 | 461 | 99.6 | 5.4 | 144 | 17 | 34100 | 160 | 200 | concentration at 0.5 h [1, 14]: 984 ng/mL; concentration at 8 h ([3]; BR3 IVM): 190 ng/g; concentration at 4 h ([4]; BR2 IVM): 6690 ± 1310 ng/mL; concentration at 4 h ([4]; BR3 IVM): 2140 ± 220 ng/mL; concentration at 8 h ([4]; BR3 IVM): 630 ng/mL; concentration at 4 h [5]: 7080 ng/g; concentration at 4 h [6]: 9360 ± 1780 ng/mL; Plasma exposure (AUC0–24 h) ([7]; effective dose 1250 mg/day): 27300 ng·h/mL; Inhibitory activity on EGFR phosphorylation at 24 h (EGFR): largely disappeared; Inhibitory activity on HER2 phosphorylation at 24 h (HER2 [9]): largely disappeared |
